# Laboratory results from article PMC5615050 (Scientific Reports, 2017).
# “And” between values parts separate entries of the source, which are not always exact repeats. Identical values can stand only once. Like-named read-outs stand apart in the source and are kept apart here.
# Key:
# Wild type H1N1 NA = Wild type H1N1 NA (Influenza A virus, UniProt P03470); experiment: biochemical
# Wild type H5N1 NA = Wild type H5N1 NA (Influenza A virus, UniProt Q6DPL2); experiment: biochemical; format: biochemical
# Bac-NA^WT H1N1 = Bac-NA^WT H1N1 (Influenza A virus, UniProt P03470); experiment: biochemical
# in vitro = details: dog
# [1] = test system: Influenza A virus (A/WSN/33) H1N1; experiment: microbe, parasite or virus in culture; format: cell-based; details: for IC50: read-out: IC50 H1N1 (concentration to reduce the CPE of the virus by 50%)
# NA = details: cited from earlier work
# Wild type H5N1 NA, sequence (Q6DPL2 whole entry, looked up): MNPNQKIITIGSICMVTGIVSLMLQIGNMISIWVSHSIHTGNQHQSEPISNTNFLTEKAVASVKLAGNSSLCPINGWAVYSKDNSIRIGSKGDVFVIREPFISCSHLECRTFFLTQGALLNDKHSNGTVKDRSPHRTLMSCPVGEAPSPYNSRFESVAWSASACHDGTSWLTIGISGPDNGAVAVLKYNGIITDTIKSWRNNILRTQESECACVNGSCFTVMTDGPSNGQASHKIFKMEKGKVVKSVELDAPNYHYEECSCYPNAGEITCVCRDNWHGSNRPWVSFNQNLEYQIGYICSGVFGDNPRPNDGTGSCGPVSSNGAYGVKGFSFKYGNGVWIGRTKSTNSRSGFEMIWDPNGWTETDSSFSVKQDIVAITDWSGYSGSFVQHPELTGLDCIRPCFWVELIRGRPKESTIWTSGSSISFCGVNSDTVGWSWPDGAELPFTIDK
# Wild type H1N1 NA, sequence (P03470 whole entry, looked up): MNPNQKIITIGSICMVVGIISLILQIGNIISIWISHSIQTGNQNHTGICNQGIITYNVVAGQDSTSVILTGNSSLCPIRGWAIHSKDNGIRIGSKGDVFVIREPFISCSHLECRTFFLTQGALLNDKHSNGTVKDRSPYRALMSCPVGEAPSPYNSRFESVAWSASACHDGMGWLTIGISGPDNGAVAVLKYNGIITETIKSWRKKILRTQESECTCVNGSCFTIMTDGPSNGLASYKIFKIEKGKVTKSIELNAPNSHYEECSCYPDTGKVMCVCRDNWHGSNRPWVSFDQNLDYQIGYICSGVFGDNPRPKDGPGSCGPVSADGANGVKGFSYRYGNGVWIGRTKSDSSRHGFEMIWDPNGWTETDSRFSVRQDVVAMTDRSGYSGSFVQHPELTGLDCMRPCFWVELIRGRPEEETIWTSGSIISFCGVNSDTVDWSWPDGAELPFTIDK
# Bac-NA^WT H1N1, sequence (P03470 whole entry, looked up): as above
Structure (SMILES),"IC50 (Wild type H1N1 NA; NA inhibition, IC50 H1N1)",IC50 (Wild type H5N1 NA),IC50 (Bac-NA^WT H1N1),IC50 (Wild type H1N1 NA; IC50 Wild type H1N1),IC50 (Wild type H5N1 NA; read-out: IC50 Wild type H5N1),CC50 (in vitro),"IC50 ([1]; Influenza A virus, MDCK)",IC50 [1],IC50 (NA),concentration showing consistent blue color (living cells) in CPE assay [1]
CC1OC(OC2CC(O)C3(CO)C4C(O)CC5(C)C(C6COC(O)C6)CCC5(O)C4CCC3(O)C2)C(O)C(O)C1O (stereo not drawn) [BPR1P0003S0],37.3 ± 13.4 µM,2.62 ± 0.96 µM,2.18 ± 0.03 µM,,,,,,,
O=C(Nc1ccc2c(O)cc(S(=O)(=O)O)cc2c1)Nc1ccc2c(O)cc(S(=O)(=O)O)cc2c1 [NSC45174],,16.7 ± 1.67 µM,,< 10 µM and 5.29 µM,< 20 µM,> 100 µM,36.5 µM,36.5 ± 1.19 µM,,
"CCC(CC)O[C@@H]1C=C(C(=O)O)C[C@H](N)[C@H]1NC(C)=O [GS4071, oseltamivir carboxylate, reference compound]",,,,,,,,0.02 ± 0.0031 µM,[…],
O=C(Nc1ccc2c(O)c(/N=N/c3ccc4c(O)cc(S(=O)(=O)O)cc4c3)c(S(=O)(=O)O)cc2c1)c1ccccc1 [NSC45609],,13 ± 0.78 µM,,< 10 µM and 3.67 µM,< 20 µM,> 100 µM,16.5 µM,16.5 ± 0.63 µM,,
Nc1ccc2c(O)c(/N=N/c3ccc4c(O)cc(S(=O)(=O)O)cc4c3)c(S(=O)(=O)O)cc2c1 [NSC162535],,18.7 ± 1.89 µM,,< 10 µM and 4.49 µM,< 20 µM,> 100 µM,61.5 µM,61.45 ± 0.17 µM,,≥ 50 µM
CC12CCC(O)CC1CCC1C2CC(O)C2(C)C(C3=CC(=O)OC3)CCC12O (stereo not drawn) [BPR1P0007S0],36.5 ± 5.02 µM,2.49 ± 1.43 µM,1.79 ± 0.01 µM,,,,,,,
CC12CCC(O)CC1CCC1C2CCC2(C)C(C3=CC(=O)OC3)CCC12O (stereo not drawn) [BPR1P0008S0],31.4 ± 7.33 µM,2.56 ± 0.2 µM,2 µM,,,,,,,
